Numbers after ± are expanded uncertainties.
Legend:
[1] = 101.3 kPa, Liquid; for viscosity: Capillary tube (Ostwald / Ubbelohde) method; for mass density: Pycnometric method
[2] = xn = mol fraction of the nth substance listed; details: 101.3 kPa, Liquid, x1 = 1; for viscosity: Capillary tube (Ostwald / Ubbelohde) method; for mass density: Pycnometric method

SMILES	viscosity ([1]; 298.15 K)	mass density ([1]; 298.15 K)	viscosity ([1]; 303.15 K)	mass density ([1]; 303.15 K)	viscosity ([1]; 308.15 K)	mass density ([1]; 308.15 K)	viscosity ([1]; 313.15 K)	mass density ([1]; 313.15 K)	viscosity ([2]; 298.15 K)	mass density ([2]; 298.15 K)	viscosity ([2]; 303.15 K)	mass density ([2]; 303.15 K)	viscosity ([2]; 308.15 K)	mass density ([2]; 308.15 K)	viscosity ([2]; 313.15 K)	mass density ([2]; 313.15 K)
Nc1ccccc1 [aniline]	3.69 ± 0.028 mPa·s	1017.2 ± 0.6 kg/m3	3.19 ± 0.024 mPa·s	1012.9 ± 0.6 kg/m3	2.8 ± 0.021 mPa·s	1008.6 ± 0.6 kg/m3	2.42 ± 0.018 mPa·s	1004.2 ± 0.6 kg/m3	–	–	–	–	–	–	–	–
CN(C)C=O [dimethylformamide]	0.803 ± 0.006 mPa·s	944.5 ± 0.3 kg/m3	0.756 ± 0.005 mPa·s	939.8 ± 0.3 kg/m3	0.71 ± 0.005 mPa·s	935.1 ± 0.3 kg/m3	0.673 ± 0.005 mPa·s	930.2 ± 0.3 kg/m3	–	–	–	–	–	–	–	–
N#Cc1ccccc1 [benzonitrile]	1.171 ± 0.009 mPa·s	1000.9 ± 0.6 kg/m3	1.126 ± 0.009 mPa·s	996.4 ± 0.6 kg/m3	1.068 ± 0.009 mPa·s	991.9 ± 0.6 kg/m3	1.001 ± 0.008 mPa·s	987.2 ± 0.6 kg/m3	–	–	–	–	–	–	–	–
CN(C)C=O [dimethylformamide] + Nc1ccccc1	–	–	–	–	–	–	–	–	0.803 ± 0.006 mPa·s	944.5 ± 0.3 kg/m3	0.756 ± 0.005 mPa·s	939.8 ± 0.3 kg/m3	0.71 ± 0.005 mPa·s	935.1 ± 0.3 kg/m3	0.673 ± 0.005 mPa·s	930.2 ± 0.3 kg/m3
CN(C)C=O [dimethylformamide] + N#Cc1ccccc1	–	–	–	–	–	–	–	–	0.803 ± 0.006 mPa·s	944.5 ± 0.3 kg/m3	0.756 ± 0.005 mPa·s	939.8 ± 0.3 kg/m3	0.71 ± 0.005 mPa·s	935.1 ± 0.3 kg/m3	0.673 ± 0.005 mPa·s	930.2 ± 0.3 kg/m3

From the NIST ThermoML archive (doi:10.1021/je030101n)
